The target of the test is T1, ASK2 (Homo sapiens, UniProt O95382).
T1 construct: purchased Carna Biosciences
T1 sequence (O95382 1-1288): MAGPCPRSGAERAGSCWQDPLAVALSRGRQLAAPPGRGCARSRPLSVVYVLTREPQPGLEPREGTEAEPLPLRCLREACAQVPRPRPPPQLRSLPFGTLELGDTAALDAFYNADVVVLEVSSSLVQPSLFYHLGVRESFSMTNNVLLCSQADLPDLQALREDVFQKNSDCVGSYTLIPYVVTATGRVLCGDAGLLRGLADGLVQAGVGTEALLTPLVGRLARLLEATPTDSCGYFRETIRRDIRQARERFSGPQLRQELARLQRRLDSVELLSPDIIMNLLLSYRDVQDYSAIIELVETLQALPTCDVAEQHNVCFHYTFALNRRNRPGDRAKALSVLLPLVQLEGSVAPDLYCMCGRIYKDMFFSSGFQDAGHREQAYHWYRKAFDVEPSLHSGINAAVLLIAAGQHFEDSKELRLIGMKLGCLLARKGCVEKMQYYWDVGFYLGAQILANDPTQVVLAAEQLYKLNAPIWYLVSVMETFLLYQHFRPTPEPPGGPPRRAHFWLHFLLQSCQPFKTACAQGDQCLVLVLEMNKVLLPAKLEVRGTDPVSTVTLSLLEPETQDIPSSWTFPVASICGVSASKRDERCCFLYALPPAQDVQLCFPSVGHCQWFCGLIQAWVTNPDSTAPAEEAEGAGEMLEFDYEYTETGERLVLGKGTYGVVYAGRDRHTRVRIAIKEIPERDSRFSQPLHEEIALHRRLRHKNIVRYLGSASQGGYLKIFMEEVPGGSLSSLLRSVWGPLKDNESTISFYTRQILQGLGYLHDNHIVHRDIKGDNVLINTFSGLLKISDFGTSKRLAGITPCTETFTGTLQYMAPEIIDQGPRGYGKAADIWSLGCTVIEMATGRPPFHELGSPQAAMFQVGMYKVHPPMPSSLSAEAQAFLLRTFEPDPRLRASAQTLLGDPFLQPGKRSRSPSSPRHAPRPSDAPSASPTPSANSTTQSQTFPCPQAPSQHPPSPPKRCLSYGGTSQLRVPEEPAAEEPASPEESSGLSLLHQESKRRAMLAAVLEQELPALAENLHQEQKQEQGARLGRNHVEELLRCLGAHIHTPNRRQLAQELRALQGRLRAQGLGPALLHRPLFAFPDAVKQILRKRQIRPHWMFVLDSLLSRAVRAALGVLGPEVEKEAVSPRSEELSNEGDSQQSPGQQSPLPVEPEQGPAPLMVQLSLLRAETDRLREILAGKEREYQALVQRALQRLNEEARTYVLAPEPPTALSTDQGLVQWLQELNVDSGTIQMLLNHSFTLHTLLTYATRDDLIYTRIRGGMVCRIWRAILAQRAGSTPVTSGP
As to the kind of experiment: ASK2 biochemical assay (selectivity assay). Particulars: ATP 100 μM. As for the experimental part: ASK2 assay was performed to evaluate above mentioned example for its selectivity towards ASK1 with respect ASK 2.
ASK2 biochemical assay was standardized using ASK2 (Carna Biosciences), MBP biotin conjugate (Merk life science), ATP, streptavidin surelight APC (PerkinElmer) and Lance Eu-W1024-antiphospho threonine (PerkinElmer). Enzyme concentration, ATP, MBP biotin conjugate and antibodies were titrated for enzyme assay. Assay was carried out in freshly prepared ASK2 kinase buffer, 5 mM MOPS pH-7.2, 2.5 mM β-glycerophosphate, 5 mM magnesium chloride (MgCl2), 1 mM EGTA, 0.4 mM EDTA, 0.05 mM DTT and 0.05% BSA. DMSO was used as vehicle control with a final concentration of 1%. A 40 ng of ASK2 enzyme was incubated with compound for 1 hour at 23° C. on a shaker at 100rpm. ATP and MBP biotin conjugate (as substrate) was added at a final concentration of 100 μM and 0.1mg/ml respectively and incubated for 3 hours at 23° C. on a shaker at 100rpm. Detection reagents streptavidin surelight APC (55.56nM), lance Eu-W1024-antiphospho threonine antibody (1.11nM) and 1X lance detection buffer were added and incubated for 2 hour at room temperature on a shaker at 100rpm. Delta F ratios were calculated from data obtained at excitation (337 nm) and emission wavelengths (665 nm and 620-10 nm). Substrate blank values were considered as negative control. Values from negative control were subtracted from vehicle control and compound treated wells. Enzyme inhibition by compounds was calculated from vehicle controls, which represent uninterrupted enzyme's activity.

This passage reports IC50 results from US20220332700A1, “NOVEL APOPTOSIS SIGNAL-REGULATING KINASE 1 INHIBITORS” (MANKIND PHARMA LTD, priority 2019, published 2022).

SMILES strings stand for the structures. Where only a bound is given, the exact number is not on record here.

Compound `CC(C)n1cnnc1-c1cccc(N2CCN(c3ccc(N4CCOCC4)cc3)C2=O)n1` [Example 1043, 1-(6-(4-isopropyl-4H-1,2,4-triazol-3-yl)pyridin-2-yl)-3-(4-morpholinophenyl)imidazolidin-2-one] showed an IC50 of over 10 µM. Turning to `CC(C)n1cnnc1-c1cccc(N2CCN(c3ccc(N4CC(C#N)C4)cc3)C2=O)n1` [Example 1071, 1-(4-(3-(6-(4-isopropyl-4H-1,2,4-triazol-3-yl)pyridin-2-yl)-2-oxoimidazolidin-1-yl)phenyl)azetidine-3-carbonitrile], the IC50 was over 10 µM.

As for `CNC(=O)C1CCN(c2ccc(N3CCN(c4cccc(-c5nncn5C(C)C)n4)C3=O)cc2)CC1` [Example 1082, 1-(4-(3-(6-(4-isopropyl-4H-1,2,4-triazol-3-yl)pyridin-2-yl)-2-oxoimidazolidin-1-yl)phenyl)-N-methylpiperidine-4-carboxamide], the IC50 was found to be 8.5 µM.

Compound `CC(C)n1cnnc1-c1cccc(N2CCN(c3ccc(N4CCC(C(=O)N(C)C)CC4)cc3)C2=O)n1` [Example 1097, 1-(4-(3-(6-(4-isopropyl-4H-1,2,4-triazol-3-yl)pyridin-2-yl)-2-oxoimidazolidin-1-yl)phenyl)-N,N-dimethylpiperidine-4-carboxamide] came in with an IC50 of 7.9 µM. This IC50 and that of the compound before are within 1.5-fold of each other.

As usually defined, the IC50 is the concentration at which inhibition is half-maximal.
